Test results taken from ChEMBL document CHEMBL4266011 (ACS Med Chem Lett, 2018).

Tests used:
[1] = biological target: Carbonic anhydrase 13 (Homo sapiens, UniProt Q8N1Q1)
Description: Inhibition of recombinant human CA13 preincubated for 15 mins prior to testing measured for 10 to 100 secs by phenol red based stopped-flow CO2 hydration assay

[2] = biological target: Carbonic anhydrase 6 (Homo sapiens, UniProt P23280)
Description: Inhibition of recombinant human CA6 preincubated for 15 mins prior to testing measured for 10 to 100 secs by phenol red based stopped-flow CO2 hydration assay

[3] = biological target: Carbonic anhydrase 5B, mitochondrial (Homo sapiens, UniProt Q9Y2D0)
Description: Inhibition of recombinant human CA5b preincubated for 15 mins prior to testing measured for 10 to 100 secs by phenol red based stopped-flow CO2 hydration assay

[4] = biological target: Carbonic anhydrase 14 (Homo sapiens, UniProt Q9ULX7)
Description: Inhibition of recombinant human CA14 preincubated for 15 mins prior to testing measured for 10 to 100 secs by phenol red based stopped-flow CO2 hydration assay

[5] = biological target: Carbonic anhydrase 7 (Homo sapiens, UniProt P43166)
Description: Inhibition of recombinant human CA7 preincubated for 15 mins prior to testing measured for 10 to 100 secs by phenol red based stopped-flow CO2 hydration assay

[6] = biological target: Carbonic anhydrase 5A, mitochondrial (Homo sapiens, UniProt P35218)
Description: Inhibition of recombinant human CA5a preincubated for 15 mins prior to testing measured for 10 to 100 secs by phenol red based stopped-flow CO2 hydration assay

[7] = biological target: Carbonic anhydrase 12 (Homo sapiens, UniProt O43570)
Description: Inhibition of recombinant human CA12 preincubated for 15 mins prior to testing measured for 10 to 100 secs by phenol red based stopped-flow CO2 hydration assay

[8] = biological target: Carbonic anhydrase 4 (Homo sapiens, UniProt P22748)
Description: Inhibition of recombinant human CA4 preincubated for 15 mins prior to testing measured for 10 to 100 secs by phenol red based stopped-flow CO2 hydration assay

[9] = biological target: Carbonic anhydrase 3 (Homo sapiens, UniProt P07451)
Description: Inhibition of recombinant human CA3 preincubated for 15 mins prior to testing measured for 10 to 100 secs by phenol red based stopped-flow CO2 hydration assay

[10] = biological target: Carbonic anhydrase 9 (Homo sapiens, UniProt Q16790)

Sequence of Carbonic anhydrase 5B, mitochondrial (Q9Y2D0 whole entry): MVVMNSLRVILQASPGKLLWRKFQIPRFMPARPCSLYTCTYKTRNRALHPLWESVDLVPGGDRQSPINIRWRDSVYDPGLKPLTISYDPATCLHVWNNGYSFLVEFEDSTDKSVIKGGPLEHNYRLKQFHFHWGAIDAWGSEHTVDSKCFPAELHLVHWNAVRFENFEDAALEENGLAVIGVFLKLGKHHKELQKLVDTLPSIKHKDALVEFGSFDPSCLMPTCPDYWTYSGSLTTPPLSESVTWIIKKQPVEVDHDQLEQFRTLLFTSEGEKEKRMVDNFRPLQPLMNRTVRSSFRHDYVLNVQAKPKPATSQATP
Sequence of Carbonic anhydrase 12 (O43570 whole entry): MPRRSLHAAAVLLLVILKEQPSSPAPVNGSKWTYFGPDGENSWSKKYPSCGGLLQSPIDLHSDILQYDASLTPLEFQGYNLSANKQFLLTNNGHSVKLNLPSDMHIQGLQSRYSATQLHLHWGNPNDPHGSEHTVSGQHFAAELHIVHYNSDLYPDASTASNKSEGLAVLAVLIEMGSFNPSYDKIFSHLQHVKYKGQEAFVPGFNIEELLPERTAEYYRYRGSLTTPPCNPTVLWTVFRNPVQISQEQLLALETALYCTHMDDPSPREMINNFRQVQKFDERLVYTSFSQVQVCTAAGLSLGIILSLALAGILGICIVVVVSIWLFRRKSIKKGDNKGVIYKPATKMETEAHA
Sequence of Carbonic anhydrase 14 (Q9ULX7 whole entry): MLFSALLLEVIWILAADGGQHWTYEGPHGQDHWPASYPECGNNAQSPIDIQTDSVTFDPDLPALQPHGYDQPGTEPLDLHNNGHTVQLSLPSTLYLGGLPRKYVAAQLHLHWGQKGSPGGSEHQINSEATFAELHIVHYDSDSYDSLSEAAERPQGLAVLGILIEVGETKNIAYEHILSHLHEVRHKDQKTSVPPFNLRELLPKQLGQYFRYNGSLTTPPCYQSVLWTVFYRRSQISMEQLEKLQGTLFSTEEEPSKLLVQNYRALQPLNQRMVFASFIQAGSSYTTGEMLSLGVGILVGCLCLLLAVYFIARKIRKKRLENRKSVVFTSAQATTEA
Sequence of Carbonic anhydrase 13 (Q8N1Q1 whole entry): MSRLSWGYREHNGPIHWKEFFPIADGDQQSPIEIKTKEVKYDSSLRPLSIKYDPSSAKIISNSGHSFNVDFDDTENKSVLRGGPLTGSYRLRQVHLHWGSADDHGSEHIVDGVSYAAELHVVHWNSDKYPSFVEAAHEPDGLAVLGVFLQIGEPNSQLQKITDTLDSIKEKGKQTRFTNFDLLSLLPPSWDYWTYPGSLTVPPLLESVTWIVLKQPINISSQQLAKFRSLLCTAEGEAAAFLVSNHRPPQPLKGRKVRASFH
Sequence of Carbonic anhydrase 3 (P07451 whole entry): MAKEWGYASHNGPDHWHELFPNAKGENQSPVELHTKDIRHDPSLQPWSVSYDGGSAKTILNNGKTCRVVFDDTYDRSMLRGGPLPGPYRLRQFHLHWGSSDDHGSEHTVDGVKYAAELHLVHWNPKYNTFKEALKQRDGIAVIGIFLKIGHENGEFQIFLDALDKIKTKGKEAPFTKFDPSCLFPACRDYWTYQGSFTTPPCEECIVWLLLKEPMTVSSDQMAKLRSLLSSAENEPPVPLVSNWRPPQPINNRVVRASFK
Sequence of Carbonic anhydrase 4 (P22748 whole entry): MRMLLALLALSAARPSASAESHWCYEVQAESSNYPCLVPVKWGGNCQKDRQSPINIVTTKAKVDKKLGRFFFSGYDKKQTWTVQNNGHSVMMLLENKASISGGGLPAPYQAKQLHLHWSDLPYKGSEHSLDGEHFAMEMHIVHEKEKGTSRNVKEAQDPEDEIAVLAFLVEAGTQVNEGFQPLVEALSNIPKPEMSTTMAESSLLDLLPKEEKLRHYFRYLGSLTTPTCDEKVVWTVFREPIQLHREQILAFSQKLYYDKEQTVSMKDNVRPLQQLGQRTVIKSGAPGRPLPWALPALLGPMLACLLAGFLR
Sequence of Carbonic anhydrase 6 (P23280 whole entry): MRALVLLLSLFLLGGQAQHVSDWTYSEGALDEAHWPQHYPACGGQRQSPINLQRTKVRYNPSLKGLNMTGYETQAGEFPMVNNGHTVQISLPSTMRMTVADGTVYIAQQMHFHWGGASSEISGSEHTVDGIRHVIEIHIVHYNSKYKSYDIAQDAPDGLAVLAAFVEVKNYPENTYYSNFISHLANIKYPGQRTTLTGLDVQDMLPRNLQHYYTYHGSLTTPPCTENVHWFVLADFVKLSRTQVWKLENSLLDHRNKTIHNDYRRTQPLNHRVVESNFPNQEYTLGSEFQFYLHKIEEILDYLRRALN
Sequence of Carbonic anhydrase 7 (P43166 whole entry): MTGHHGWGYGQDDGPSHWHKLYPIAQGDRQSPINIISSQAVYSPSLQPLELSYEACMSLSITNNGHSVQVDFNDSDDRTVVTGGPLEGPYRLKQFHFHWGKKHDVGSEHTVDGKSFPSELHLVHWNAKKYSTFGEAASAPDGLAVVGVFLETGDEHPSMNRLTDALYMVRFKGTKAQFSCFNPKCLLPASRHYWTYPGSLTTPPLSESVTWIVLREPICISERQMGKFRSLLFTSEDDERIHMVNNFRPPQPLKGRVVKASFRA
Sequence of Carbonic anhydrase 5A, mitochondrial (P35218 whole entry): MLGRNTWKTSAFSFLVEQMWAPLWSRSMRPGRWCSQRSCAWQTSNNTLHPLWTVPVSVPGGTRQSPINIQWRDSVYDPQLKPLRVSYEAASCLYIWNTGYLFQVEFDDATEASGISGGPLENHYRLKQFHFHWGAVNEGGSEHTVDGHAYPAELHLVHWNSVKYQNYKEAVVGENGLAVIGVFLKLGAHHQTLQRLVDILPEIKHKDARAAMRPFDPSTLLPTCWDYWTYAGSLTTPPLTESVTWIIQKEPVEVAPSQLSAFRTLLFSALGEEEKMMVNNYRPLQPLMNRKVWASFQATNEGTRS

Ki [1]: 172 nM
Ki [2]: 98.2 nM
Ki [3]: 5330 nM
Ki [4]: 677 nM
Ki [5]: 3 nM
Ki [6]: 1430 nM
Ki [7]: 45.3 nM
Ki [8]: 939 nM
Ki [9]: > 10000 nM
Ki [10]: 126 nM
SMILES: NC(N)=Nc1nc(CSCCC(N)=NS(N)(=O)=O)cs1 [FAMOTIDINE]
